Here are results for 7 compounds from patent US5844102A, “Glycohydrolase inhibitors, their preparation and use thereof” (University of Maryland Baltimore County, priority 1994, dated 1998).

SMILES strings stand for the structures. Read-outs that look alike come from different tables or passages of the source.

What is called Ki is a measure of affinity in units of concentration, obtained from inhibition or displacement.

Data set [1] deals with T1, isomaltase (bakers yeast) (Saccharomyces cerevisiae, UniProt P53051).
T1 construct: purchased Sigma Chemical Company
The data set is described as follows: isomaltase inhibition, p-nitrophenol glucopyranoside substrate. It counts as biochemical. Here is the method:
(§1) The enzymes α-glucosidase (yeast), β-glucosidase (almonds), isomaltase (bakers yeast) and α-mannosidase (jackbean) were purchased from Sigma Chemical Company. Glucoamylase was isolated by the present inventors by expressing the gene from Aspergillus awamori in yeast, by methods well known in the art. Enzyme assays were performed by using p-nitrophenol -α (or β)-glucopyranosides as substrate at 37° C. in phosphate buffer (0.05M, pH 6.8) for α (β)-glucosidase and isomaltase, and p-nitrophenol-α-mannopyranoside as substrate at 25° C. in citrate (0.05M, pH 4.5) buffer for α-mannosidase. Glucoamylase was assayed using maltose as substrate at 50° C. in sodium acetate buffer (0.05M, pH 4.5).
(§2) Michaelis-Menten constant, Km, was calculated using software Grafit (Erithacus Software Ltd.). Ki was calculated by plotting K^appm vs. [Inhibitor]. FIG. 2(a) represents a plot of K^appm vs. [Inhibitor], wherein the inhibitor is the monosaccharide sugar analog isofagomin, obtained for five different glycosidases. FIG. 2(b) represents a similar plot of K^appm vs. [Inhibitor], wherein the inhibitor is the disaccharide sugar analog of formula II, obtained for five different glycosidases.

In another data set the target is T2, α-mannosidase (jackbean) (Canavalia ensiformis, UniProt C0HJB3).
T2 construct: purchased Sigma Chemical Company
T2 sequence (C0HJB3 1-562 limits assumed): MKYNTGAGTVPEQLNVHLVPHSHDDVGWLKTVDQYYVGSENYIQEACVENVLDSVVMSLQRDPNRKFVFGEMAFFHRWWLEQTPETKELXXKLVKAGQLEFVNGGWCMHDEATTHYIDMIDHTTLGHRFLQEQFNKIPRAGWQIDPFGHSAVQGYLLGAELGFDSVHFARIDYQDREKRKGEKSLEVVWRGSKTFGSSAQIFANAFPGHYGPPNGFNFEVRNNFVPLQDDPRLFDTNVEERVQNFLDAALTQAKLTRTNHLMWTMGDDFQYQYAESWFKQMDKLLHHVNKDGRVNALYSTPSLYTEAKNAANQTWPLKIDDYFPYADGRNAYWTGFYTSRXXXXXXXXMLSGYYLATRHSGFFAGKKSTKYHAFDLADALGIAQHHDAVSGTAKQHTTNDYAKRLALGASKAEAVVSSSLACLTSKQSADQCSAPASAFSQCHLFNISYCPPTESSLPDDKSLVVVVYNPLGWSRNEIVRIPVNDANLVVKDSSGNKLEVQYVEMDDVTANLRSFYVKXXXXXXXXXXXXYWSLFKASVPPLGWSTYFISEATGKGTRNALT
T2 sequence (C0HJB3 563-981 limits assumed): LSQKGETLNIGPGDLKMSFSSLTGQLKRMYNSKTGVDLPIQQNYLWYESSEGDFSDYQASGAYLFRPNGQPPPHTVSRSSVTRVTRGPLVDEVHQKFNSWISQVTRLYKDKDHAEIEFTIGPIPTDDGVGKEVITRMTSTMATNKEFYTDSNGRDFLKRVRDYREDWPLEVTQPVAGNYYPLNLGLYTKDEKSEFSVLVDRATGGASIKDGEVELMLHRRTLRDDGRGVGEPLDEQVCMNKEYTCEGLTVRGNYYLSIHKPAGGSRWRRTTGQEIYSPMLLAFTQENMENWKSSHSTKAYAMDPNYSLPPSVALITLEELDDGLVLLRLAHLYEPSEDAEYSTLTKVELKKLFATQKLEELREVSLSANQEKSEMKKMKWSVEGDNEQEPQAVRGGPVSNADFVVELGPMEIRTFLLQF
In words: α-mannosidase inhibition, p-nitrophenol-α-mannopyranoside substrate. It is filed as biochemical. As to conditions: 25° C., citrate buffer 0.05M, pH 4.5; read-out: Ki (inhibition constant), α-Mannosidase. Here is the method:
as §1
(§3) Michaelis-Menten constant, Km, was calculated using software Grafit (Erithacus Software Ltd.). Ki was calculated by plotting K^appm vs. [Inhibitor]. FIG. 2(a) represents a plot of K^appm vs. [Inhibitor], wherein the inhibitor is the monosaccharide sugar analog isofagomin, obtained for five different glycosidases.

The conditions of data set [2]: in vivo; cited from earlier work.
The target of a further data set is T3, lysosomal α-glucosidase (Rattus norvegicus, UniProt Q6P7A9).
T3 construct: host or cells: liver (in vivo)
The conditions noted are these: cited from earlier work.

For the next data set, the target named is T4, Glucoamylase (Aspergillus awamori, UniProt P69327).
T4 construct: made in house; host or cells: yeast
In words: glucoamylase inhibition, maltose substrate. It is filed as biochemical. Here is the method:
as §1, §3

In another data set the target is β-glucosidase (almonds). The data set is described as follows: β-glucosidase inhibition, p-nitrophenol-β-glucopyranoside substrate. The conditions noted are these: for Ki: 37° C., phosphate buffer 0.05M, pH 6.8, read-out: Ki (inhibition constant), β-Glucosidase; for inhibition of β-glucosidase, in words: hydrochloride. It counts as biochemical. Here is the method: as §1, §2

The subject of data set [3] is cellulase degradation of wood. In words: wood treatment, cellulase degradation. The conditions noted are these: approximately 10 mg/kg of wood per day, several months of treatment. Here is the method:
A wood treatment composition containing approximately 10 mg/kg of wood per day of isofagomin is administered to a piece of wood. After several months of treatment, the piece of wood is analyzed.

For another data set, the target named is T5, α-glucosidase (yeast) (Saccharomyces cerevisiae, UniProt P53341).
T5 construct: purchased Sigma Chemical Company
The data set is described as follows: α-glucosidase inhibition, p-nitrophenol-α-glucopyranoside substrate. It is filed as biochemical. As to conditions: 37° C., phosphate buffer 0.05M, pH 6.8; read-out: Ki (inhibition constant), α-Glucosidase. Here is the method:
as §1, §3

The subject of data set [4] is glycohydrolase degradation of crop. In words: agricultural crop treatment, glycohydrolase degradation. As to conditions: approximately 10 mg/kg of crop per day, several months of treatment. Here is the method:
A composition for treating agricultural crops containing approximately 10 mg/kg of crop per day of isofagomin is administered to a crop. After several months of treatment, the crop is analyzed.

[5] abbreviates: maltose substrate, 50° C., sodium acetate buffer 0.05M, pH 4.5, read-out: Ki (inhibition constant), Glucoamylase.
[6] abbreviates: 37° C., phosphate buffer 0.05M, pH 6.8, read-out: Ki (inhibition constant), Isomaltase.

T1 sequence (P53051 whole entry): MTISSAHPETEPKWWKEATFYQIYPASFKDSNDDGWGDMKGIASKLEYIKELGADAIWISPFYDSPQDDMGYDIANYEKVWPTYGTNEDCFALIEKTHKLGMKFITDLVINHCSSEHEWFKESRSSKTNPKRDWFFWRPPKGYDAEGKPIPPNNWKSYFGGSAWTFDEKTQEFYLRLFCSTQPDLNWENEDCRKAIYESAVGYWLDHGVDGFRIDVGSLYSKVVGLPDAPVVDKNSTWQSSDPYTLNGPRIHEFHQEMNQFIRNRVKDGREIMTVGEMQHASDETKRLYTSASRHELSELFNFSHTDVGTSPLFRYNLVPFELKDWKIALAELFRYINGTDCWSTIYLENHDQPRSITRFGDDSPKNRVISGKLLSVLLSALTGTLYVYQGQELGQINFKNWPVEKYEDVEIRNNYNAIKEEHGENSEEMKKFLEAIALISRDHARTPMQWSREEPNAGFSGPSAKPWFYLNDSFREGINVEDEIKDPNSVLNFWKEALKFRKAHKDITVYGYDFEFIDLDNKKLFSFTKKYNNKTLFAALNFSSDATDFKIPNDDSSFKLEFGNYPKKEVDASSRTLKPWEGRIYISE
T4 sequence (P69327 25-640): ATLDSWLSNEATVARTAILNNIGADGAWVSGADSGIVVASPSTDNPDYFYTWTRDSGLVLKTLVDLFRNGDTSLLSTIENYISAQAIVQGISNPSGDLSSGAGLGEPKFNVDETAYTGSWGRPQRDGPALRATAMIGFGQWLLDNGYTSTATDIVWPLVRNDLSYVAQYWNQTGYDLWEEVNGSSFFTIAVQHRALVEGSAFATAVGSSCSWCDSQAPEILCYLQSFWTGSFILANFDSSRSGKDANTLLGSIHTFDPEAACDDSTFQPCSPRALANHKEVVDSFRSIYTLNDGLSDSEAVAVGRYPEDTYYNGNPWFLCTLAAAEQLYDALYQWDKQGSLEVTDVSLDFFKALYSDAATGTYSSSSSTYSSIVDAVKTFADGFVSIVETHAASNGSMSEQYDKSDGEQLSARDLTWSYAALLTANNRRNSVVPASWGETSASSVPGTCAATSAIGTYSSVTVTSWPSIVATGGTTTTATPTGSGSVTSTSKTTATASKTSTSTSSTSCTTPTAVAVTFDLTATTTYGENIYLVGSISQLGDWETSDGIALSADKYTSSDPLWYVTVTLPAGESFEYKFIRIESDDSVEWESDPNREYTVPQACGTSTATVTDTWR
T5 sequence (P53341 whole entry): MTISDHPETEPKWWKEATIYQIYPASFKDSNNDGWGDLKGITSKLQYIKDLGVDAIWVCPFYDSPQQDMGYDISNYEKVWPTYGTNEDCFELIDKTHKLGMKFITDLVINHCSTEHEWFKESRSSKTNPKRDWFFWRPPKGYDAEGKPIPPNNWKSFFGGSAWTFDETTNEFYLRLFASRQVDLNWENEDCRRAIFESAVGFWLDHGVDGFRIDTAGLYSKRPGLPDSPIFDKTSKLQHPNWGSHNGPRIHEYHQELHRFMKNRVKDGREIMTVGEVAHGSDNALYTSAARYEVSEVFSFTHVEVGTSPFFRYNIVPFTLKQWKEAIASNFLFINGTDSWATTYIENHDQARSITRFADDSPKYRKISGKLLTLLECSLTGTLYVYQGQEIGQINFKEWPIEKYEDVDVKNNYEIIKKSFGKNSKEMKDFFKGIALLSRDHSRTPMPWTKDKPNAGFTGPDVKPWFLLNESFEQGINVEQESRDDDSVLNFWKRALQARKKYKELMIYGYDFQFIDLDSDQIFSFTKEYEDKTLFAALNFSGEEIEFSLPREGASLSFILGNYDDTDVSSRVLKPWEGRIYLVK
T3 sequence (Q6P7A9 70-953): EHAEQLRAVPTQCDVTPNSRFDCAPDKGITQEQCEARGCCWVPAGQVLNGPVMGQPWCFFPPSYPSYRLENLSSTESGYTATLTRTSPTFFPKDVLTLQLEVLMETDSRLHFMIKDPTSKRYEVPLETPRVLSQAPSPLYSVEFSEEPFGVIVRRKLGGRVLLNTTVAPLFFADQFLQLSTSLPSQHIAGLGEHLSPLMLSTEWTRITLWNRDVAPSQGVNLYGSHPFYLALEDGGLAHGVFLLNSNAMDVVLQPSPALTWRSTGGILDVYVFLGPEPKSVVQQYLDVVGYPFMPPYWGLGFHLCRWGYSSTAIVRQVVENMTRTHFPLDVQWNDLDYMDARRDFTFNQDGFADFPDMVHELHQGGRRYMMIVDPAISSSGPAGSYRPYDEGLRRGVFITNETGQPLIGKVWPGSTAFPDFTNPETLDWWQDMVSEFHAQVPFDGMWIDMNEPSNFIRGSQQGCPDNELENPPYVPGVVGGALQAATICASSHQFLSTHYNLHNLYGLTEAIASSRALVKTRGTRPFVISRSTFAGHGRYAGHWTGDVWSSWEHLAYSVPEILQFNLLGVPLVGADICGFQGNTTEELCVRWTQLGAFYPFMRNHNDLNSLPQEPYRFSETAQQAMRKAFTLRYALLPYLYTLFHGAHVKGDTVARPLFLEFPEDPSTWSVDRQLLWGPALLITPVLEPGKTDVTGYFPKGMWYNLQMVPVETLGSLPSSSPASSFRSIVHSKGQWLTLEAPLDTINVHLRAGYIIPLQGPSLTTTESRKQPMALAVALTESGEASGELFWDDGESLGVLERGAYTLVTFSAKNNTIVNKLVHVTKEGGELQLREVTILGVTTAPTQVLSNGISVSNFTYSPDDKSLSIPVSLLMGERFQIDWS

For the compound `C[C@H]1O[C@H](O[C@H]2[C@H](O)[C@@H](O)[C@@H](O[C@H]3[C@H](O)[C@@H](O)C(O)O[C@@H]3CO)O[C@@H]2CO)[C@H](O)[C@@H](O)[C@@H]1N[C@H]1C=C(CO)[C@@H](O)[C@H](O)[C@H]1O` (stereo partly shown) [Acarbose, acarbose, reference compound], the inhibition constant (Ki) is more than 100 µM in [1] and 7600 µM on α-mannosidase (jackbean).
For `O[C@H]1[C@H](O)[C@@H](O)CN2CC[C@H](O)[C@H]12` [Castanospermine], the “minimum effective dose required to reduce the glycemic response to sucrose” value in data set [2] is on record as 1 mg/kg. For the same compound, the “accumulation of lysosomal glycogen” value at lysosomal α-glucosidase (at the minimum effective dose (1 mg/kg)) is on record as “Accumulation of lysosomal glycogen has been found”.
Consider `OC[C@H]1NC[C@@H](O)[C@@H](O)[C@@H]1O` [Deoxymannojirimycin, reference compound], for which the figures for the Ki (on Glucoamylase (setting [5]); at β-glucosidase (almonds); in [1]) were 66 µM, […] and 49.3 µM, respectively.
Turning to `OC[C@H]1NC[C@H](O)[C@@H](O)[C@@H]1O` [Deoxynojirimycin, reference compound], the inhibition constant (Ki) on Glucoamylase (setting [5]) turned out to be 9.8 µM; on β-glucosidase (almonds), […]; in data set [1], 11.2 µM.
Turning to `Cl.OC[C@H]1CNC[C@@H](O)[C@@H]1O` [MB, (3R,4R,5R)-3,4-dihydroxy-5-hydroxymethyl-piperidine hydrochloride], the Ki on Glucoamylase (setting [5]) is 3.7 µM; on β-glucosidase (almonds), 0.11 µM; at α-glucosidase (yeast), 85.9 µM; in data set [1] (setting [6]), 7.2 µM; on α-mannosidase (jackbean) it was 775 µM. Also, in data set [3], the “cellulase degradation of treated wood” value was “No cellulase degradation is detected”. In addition, the “mode of inhibition of β-glucosidase (Lineweaver-Burk plot)” value in the data set with β-glucosidase (almonds) (FIG. 1(a), three inhibitor concentrations) is recorded as “competitive inhibition”. Moreover, the “inhibition of β-glucosidase, in words” value is “surprisingly strong inhibitor” in the data set on β-glucosidase (almonds) and “particularly strong inhibitor” with β-glucosidase (almonds) (listed as monosaccharide analog). For the same compound, the “glycohydrolase degradation of treated crop” value in data set [4] is given as “No glycohydrolase degradation is detected”.
With `CO[C@H]1O[C@H](CN2C[C@H](O)[C@@H](O)[C@H](O)[C@H]2CO)[C@@H](O)[C@H](O)[C@H]1O` [MDL, 1,5-dideoxy-1,5-[(6-deoxy-1-O-methyl-6-α,D-glucopyranosyl)imino]-D-glucitol], on lysosomal α-glucosidase (dose 10-fold higher than required to reduce the glycemic response to sucrose), the “effect on liver lysosomal α-glucosidase activity or glycogen accumulation” value was “did not affect”.
As for `CO[C@H]1O[C@H](CCN2C[C@H](CO)[C@@H](O)[C@H](O)C2)[C@@H](O)[C@H](O)[C@H]1O` [TMJ, Methyl 6,7-dideoxy-7-[(3R,4R,5R)-3,4-dihydroxy-5-hydroxymethyl-piperidinyl]-α-D-gluco-heptopyranoside], the Ki stood at 0.063 µM on Glucoamylase, 58.8 µM at α-glucosidase (yeast), 103 µM in [1] (setting [6]) and 1230 µM on α-mannosidase (jackbean).
